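Values below derive from 48-hour exposures of cells grown in 96-well plates, with endpoints linearly interpolated between the two concentrations bracketing the appropriate inhibition level. GI50 = concentration required for 50% inhibition of growth. TGI marks complete inhibition of growth.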
How the values were obtained:
Assay in all cases: NCI tumour cell line growth inhibition, 48 h
786-0 renal = system: 786-0 renal
A498 renal = system: A498 renal
A549 NSCLC = system: A549 NSCLC
ACHN renal = system: ACHN renal
BT-549 breast = system: BT-549 breast
CCRF-CEM leukemia = system: CCRF-CEM leukemia
COLO 205 colon = system: COLO 205 colon
DU-145 prostate = system: DU-145 prostate
EKVX NSCLC = system: EKVX NSCLC
HCC-2998 colon = system: HCC-2998 colon
HCT-116 colon = system: HCT-116 colon
HCT-15 colon = system: HCT-15 colon
HL-60(TB) leukemia = system: HL-60(TB) leukemia
HOP-62 NSCLC = system: HOP-62 NSCLC
HOP-92 NSCLC = system: HOP-92 NSCLC
HS 578T breast = system: HS 578T breast
HT29 colon = system: HT29 colon
IGROV1 ovarian = system: IGROV1 ovarian
K-562 leukemia = system: K-562 leukemia
KM12 colon = system: KM12 colon
LOX IMVI melanoma = system: LOX IMVI melanoma
M14 melanoma = system: M14 melanoma
MALME-3M melanoma = system: MALME-3M melanoma
MCF7 breast = system: MCF7 breast
MDA-MB-231 breast = system: MDA-MB-231 breast
MDA-MB-435 = system: MDA-MB-435
NCI-H226 lung = system: NCI-H226 lung
NCI-H23 lung = system: NCI-H23 lung
NCI-H460 lung = system: NCI-H460 lung
NCI-H522 lung = system: NCI-H522 lung
NCI/ADR-RES ovarian = system: NCI/ADR-RES ovarian
OVCAR-3 ovarian = system: OVCAR-3 ovarian
OVCAR-4 ovarian = system: OVCAR-4 ovarian
OVCAR-5 ovarian = system: OVCAR-5 ovarian
OVCAR-8 ovarian = system: OVCAR-8 ovarian
PC-3 prostate = system: PC-3 prostate
RPMI-8226 leukemia = system: RPMI-8226 leukemia
RXF 393 renal = system: RXF 393 renal
SF-268 CNS = system: SF-268 CNS
SF-295 CNS = system: SF-295 CNS
SF-539 CNS = system: SF-539 CNS
SK-MEL-2 melanoma = system: SK-MEL-2 melanoma
SK-MEL-28 melanoma = system: SK-MEL-28 melanoma
SK-MEL-5 melanoma = system: SK-MEL-5 melanoma
SK-OV-3 ovarian = system: SK-OV-3 ovarian
SN12C renal = system: SN12C renal
SNB-19 CNS = system: SNB-19 CNS
SNB-75 CNS = system: SNB-75 CNS
SW-620 colon = system: SW-620 colon
T-47D breast = system: T-47D breast
TK-10 renal = system: TK-10 renal
U251 CNS = system: U251 CNS
UACC-257 melanoma = system: UACC-257 melanoma
UACC-62 melanoma = system: UACC-62 melanoma
UO-31 renal = system: UO-31 renal

Cn1c2c(c3ccc(-c4ccn[nH]4)cc3c1=O)C(=O)c1ccccc1-2
GI50 (786-0 renal): 1.49 µM
TGI (786-0 renal): 4.46 µM
GI50 (A498 renal): 6.44 µM
TGI (A498 renal): > 100 µM
GI50 (A549 NSCLC): 1.03 µM
TGI (A549 NSCLC): 3.04 µM
GI50 (ACHN renal): 1.34 µM
TGI (ACHN renal): 5.78 µM
GI50 (BT-549 breast): 2.29 µM
TGI (BT-549 breast): 8.78 µM
GI50 (CCRF-CEM leukemia): 0.832 µM
TGI (CCRF-CEM leukemia): > 100 µM
GI50 (COLO 205 colon): 5.51 µM
TGI (COLO 205 colon): > 100 µM
GI50 (DU-145 prostate): 1.71 µM
TGI (DU-145 prostate): > 100 µM
GI50 (EKVX NSCLC): 2.95 µM
TGI (EKVX NSCLC): > 100 µM
GI50 (HCC-2998 colon): 11.6 µM
TGI (HCC-2998 colon): > 100 µM
GI50 (HCT-116 colon): 1.52 µM
TGI (HCT-116 colon): 19 µM
GI50 (HCT-15 colon): 1.51 µM
TGI (HCT-15 colon): > 100 µM
GI50 (HL-60(TB) leukemia): 0.813 µM
TGI (HL-60(TB) leukemia): 5.53 µM
GI50 (HOP-62 NSCLC): 1.92 µM
TGI (HOP-62 NSCLC): 9.89 µM
GI50 (HOP-92 NSCLC): 2.84 µM
TGI (HOP-92 NSCLC): 9.93 µM
GI50 (HS 578T breast): 6.84 µM
TGI (HS 578T breast): > 100 µM
GI50 (HT29 colon): 1.52 µM
TGI (HT29 colon): 4.85 µM
GI50 (IGROV1 ovarian): 2.18 µM
TGI (IGROV1 ovarian): > 100 µM
GI50 (K-562 leukemia): 2.17 µM
TGI (K-562 leukemia): > 100 µM
GI50 (KM12 colon): 2.34 µM
TGI (KM12 colon): > 100 µM
GI50 (LOX IMVI melanoma): 1.06 µM
TGI (LOX IMVI melanoma): 4.78 µM
GI50 (M14 melanoma): 3.6 µM
TGI (M14 melanoma): > 100 µM
GI50 (MALME-3M melanoma): 4.21 µM
TGI (MALME-3M melanoma): > 100 µM
GI50 (MCF7 breast): 0.408 µM
TGI (MCF7 breast): > 100 µM
GI50 (MDA-MB-231 breast): 4.46 µM
TGI (MDA-MB-231 breast): 64.7 µM
GI50 (MDA-MB-435): 7.51 µM
TGI (MDA-MB-435): > 100 µM
GI50 (NCI-H226 lung): 1.83 µM
TGI (NCI-H226 lung): 5.39 µM
GI50 (NCI-H23 lung): 2.64 µM
TGI (NCI-H23 lung): > 100 µM
GI50 (NCI-H460 lung): 0.494 µM
TGI (NCI-H460 lung): 3.37 µM
GI50 (NCI-H522 lung): 2.22 µM
TGI (NCI-H522 lung): 23.8 µM
GI50 (NCI/ADR-RES ovarian): 3.78 µM
TGI (NCI/ADR-RES ovarian): > 100 µM
GI50 (OVCAR-3 ovarian): 5.97 µM
TGI (OVCAR-3 ovarian): 76.3 µM
GI50 (OVCAR-4 ovarian): 7.65 µM
TGI (OVCAR-4 ovarian): > 100 µM
GI50 (OVCAR-5 ovarian): 5.08 µM
TGI (OVCAR-5 ovarian): > 100 µM
GI50 (OVCAR-8 ovarian): 1.78 µM
TGI (OVCAR-8 ovarian): 34.6 µM
GI50 (PC-3 prostate): 4.28 µM
TGI (PC-3 prostate): > 100 µM
GI50 (RPMI-8226 leukemia): 1.77 µM
TGI (RPMI-8226 leukemia): 4.79 µM
GI50 (RXF 393 renal): 3.61 µM
TGI (RXF 393 renal): > 100 µM
GI50 (SF-268 CNS): 3.21 µM
TGI (SF-268 CNS): > 100 µM
GI50 (SF-295 CNS): 3.81 µM
TGI (SF-295 CNS): > 100 µM
GI50 (SF-539 CNS): 2.28 µM
TGI (SF-539 CNS): 11.4 µM
GI50 (SK-MEL-2 melanoma): > 100 µM
TGI (SK-MEL-2 melanoma): > 100 µM
GI50 (SK-MEL-28 melanoma): 42.5 µM
TGI (SK-MEL-28 melanoma): > 100 µM
GI50 (SK-MEL-5 melanoma): 1.76 µM
TGI (SK-MEL-5 melanoma): 5.68 µM
GI50 (SK-OV-3 ovarian): 5.21 µM
TGI (SK-OV-3 ovarian): > 100 µM
GI50 (SN12C renal): 2.1 µM
TGI (SN12C renal): 8.86 µM
GI50 (SNB-19 CNS): 2.71 µM
TGI (SNB-19 CNS): 17.3 µM
GI50 (SNB-75 CNS): 6.18 µM
TGI (SNB-75 CNS): > 100 µM
GI50 (SW-620 colon): 2.15 µM
TGI (SW-620 colon): > 100 µM
GI50 (T-47D breast): 2.86 µM
TGI (T-47D breast): > 100 µM
GI50 (TK-10 renal): 4.02 µM
TGI (TK-10 renal): 68.6 µM
GI50 (U251 CNS): 1.66 µM
TGI (U251 CNS): 10.5 µM
GI50 (UACC-257 melanoma): 7.79 µM
TGI (UACC-257 melanoma): > 100 µM
GI50 (UACC-62 melanoma): 3.1 µM
TGI (UACC-62 melanoma): > 100 µM
GI50 (UO-31 renal): 1.5 µM
TGI (UO-31 renal): > 100 µM

Reference: PubChem BioAssay (NCI)
